Experimental data taken from article PMC10304178, “Influence of Polyvinylpyrrolidone Molecular Weight and Concentration on the Precipitation Inhibition of Supersaturated Solutions of Poorly Soluble Drugs” (Pharmaceutics, 2023).

Tests used:
[1] = Equilibrium solubility of the drugs in PVP solutions (shake-flask solubility test); format: physicochemical
Method: An excess amount of the drug was added to 15 mL corning tubes containing either pure 0.1 M phosphate buffer (pH 7.4) or 0.1, 0.5 and 1% (w/v) solutions of PVP K15, K30, K60 or […], respectively. […] The saturated solution and the precipitate were separated by centrifugation for 10 min at 13,000 rpm in an Eppendorf Centrifuge 5810 R (Hamburg, Germany), followed by filtration intro ultra-performance liquid chromatography (UPLC) vials using a syringe filter (33 mm, 0.45 μm) PVDF membrane (2 mL filter sample prewet volume), acquired from Merck (Darmstadt, Germany). The tests were conducted in triplicate. The concentration of drug in the respective samples was quantified by reverse-phase chromatography using a Waters Acquity Classic UPLC system (Milford, MA, USA) equipped with an automated sample injector, a binary pump and a tunable UV detector. All samples were analyzed using a Waters Acquity UPLC BEH C18 column (130 Å, 1.7 μm, 2.1 × 50 mm) (Milford, MA, USA) at a column temperature of 50 °C for ketoconazole and tadalafil and 80 °C for albendazole. The samples were injected with a volume of s 6 μL and subsequently eluted at a flow rate of 0.8 mL/min. For albendazole and tadalafil, eluent A was a mixture of 90% (v/v) sodium sulfate (60 mM), di-ammonium hydrogen phosphate (5.5 mM) and phosphoric acid (34.5 mM) in Milli-Q water (pH 2.3) and 10% (v/v) acetonitrile. For ketoconazole, eluent A was a mixture of 90% (v/v) sodium sulfate (60 mM), di-ammonium hydrogen phosphate (5.5 mM) and phosphoric acid (34.5 mM) in Milli-Q water (pH 7.2) and 10% (v/v) acetonitrile. For tadalafil, albendazole and ketoconazole, eluent B was a mixture of 20% (v/v) Milli-Q water and 80% (v/v) acetonitrile. Albendazole was quantified in the samples using UV at a wavelength of 229 nm, while tadalafil was quantified at 284 nm and ketoconazole at 240 nm.

[2] = Supersaturation study by solvent-shift method (µDISS Profiler): induction time and slope of time–concentration profiles; format: physicochemical; settings: for Influence of PVP concentration on tind and slope of the time–concentration profile / Influence of viscosity of the PVP solution on tind or slope of the time–concentration profile: multiple linear regression coefficient plot, 95% confidence interval
Source text: Time-concentration profiles of the drugs in a supersaturated solution in the absence and presence of PVP were obtained to study the influence of the polymer on the onset of the nucleation and precipitation rate of the drug from a supersaturated solution. Supersaturation of the drug was induced by the use of a method previously developed. Briefly, a […] ProfilerTM (Billerica, MA, USA) was used to obtain in situ UV spectra in the range from 200 to 720 nm. Probe tip lengths of 5, 10 or 20 mm were selected to obtain an absorbance in the range between 0.3 and 1. The vials were stirred using a crossbar magnet at ~100 rpm at a temperature of 37 °C. […] The UV wavelength range used to quantify the drug was 267-288 nm for albendazole, 304-360 nm for ketoconazole and 299-328 nm for tadalafil. […] Standard curves were prepared with six replicates by adding aliquots of 15 μL DMSO stock solution of the drug to the dissolution medium. The initial concentration of the drug was determined by using the highest concentration of the drug for which no instantaneous precipitation occurred. Precipitation was detected by a deviation from the linearity of the standard curve, a sharp shift in the baseline in the UV spectrum or through visual inspection of the solution. To induce supersaturation, 100 μL of a DMSO stock solution of the drug was transferred into glass vials containing 10 mL solutions of PVP K15, K30, K60 or […]. […] The drug concentration was monitored in situ by the second derivative of the UV absorbance. The second derivative was used to minimize UV interferences from the precipitate. The experiments were ended when the concentrations of the respective drugs reached their equilibrium solubility. The induction time of the time-concentration profiles was used as a surrogate for the onset of the nucleation of the respective drugs, and the slope of the time-concentration profiles was used as a surrogate for the precipitation rate of the respective drugs. The induction time (tind) and the slope of the time-concentration profile were determined using TA Instruments Trios software (New Castle, DE, USA). The induction time of the time-concentration profile in minutes was estimated using the onset time function via the tangent. The slope of the time-concentration profile in (μg/mL)/min was estimated using the slope function. Multiple linear regression analysis was conducted using Umetrics MODDE11 pro (Glostrup, Denmark) to delineate the influence of PVP molecular weight and concentration on the onset of nucleation and the precipitation rate of albendazole, tadalafil and ketoconazole. The tind and slope from the time-concentration profiles were used as the response values, whereas PVP concentration and the viscosity of the PVP solutions were used as the input predictors. It should be noted that the viscosity of the PVP solutions is used instead of the molecular weights of PVP, and therefore, the impact of the viscosity of solutions of PVP is the same as that of the molecular weight. The three levels for the concentration factor were 0.1, 0.5 and 1% (w/v), and the four levels for the viscosity factor were the viscosities of the solutions of PVP K15, K30, K60 and […]. […] The equilibrium solubility, viscosity of the PVP solutions, tind and slope of time-concentration profile during supersaturation of the drugs are given as the mean ± standard deviation (SD). […] Microsoft Excel (Redmond, WA, USA) was used for this analysis. The criteria for determining statistical significance in all tests were set at p < 0.05.

[3] = design: method as in PMID 29481859; settings: absence of polymer; cited from earlier work
[4] = same concentration of repeating monomer units of PVP K15, K30, K60 and K120 (effect of molecular weight), p > 0.05
[5] = solution of 0.1% (w/v) PVP compared to the phosphate buffer pH 7.4, 37 °C, ANOVA
[6] = solutions of 0.5 and 1% (w/v) PVP, pH 7.4, 37 °C, ANOVA p < 0.05
[7] = 1 mPa.s isoviscous solutions of PVP K15, K30, K60 and K120, increasing PVP molecular weight, p < 0.05
[8] = PVP K15, K30, K60 and K120, PVP concentration increased from 0.1 to 0.5% and again from 0.5 to 1% (w/v), ANOVA p < 0.05
[9] = PVP K15, K30, K60 and K120, concentration increased from 0.1 to 0.5% and again from 0.5 to 1% (w/v), p < 0.05
[10] = PVP K15, K30, K60 and K120 compared at the same concentration (0.1, 0.5, 1% w/v), p > 0.05
[11] = same concentrations (0.1, 0.5, 1% w/v) of PVP K15, K30, K60 and K120 (effect of molecular weight), p > 0.05

| SMILES | Equilibrium solubility [1, 4] | Equilibrium solubility [1, 5] | Equilibrium solubility [1, 6] | Slope of the time–concentration profile (precipitation rate) [2, 7] | Induction time (tind) [2, 8] | Slope of the time–concentration profile (precipitation rate) [2, 9] | Slope of the time–concentration profile (precipitation rate) [2, 10] | Influence of PVP concentration on tind and slope of the time–concentration profile [2] | Influence of viscosity of the PVP solution on tind or slope of the time–concentration profile [2] | Induction time (tind) [2, 11] | Onset time of nucleation [3] | Equilibrium solubility ([1]; increasing the concentration of PVP to 1% (w/v), p < 0.05) | Equilibrium solubility ([1]; solutions of 0.1% and 0.5% (w/v) PVP compared to phosphate buffer, p < 0.05) | Slope of the time–concentration profile (precipitation rate) ([2]; 0.1% (w/v) PVP K15 compared with PVP K30, K60 and K120, p < 0.05) | Slope of the time–concentration profile (precipitation rate) ([2]; PVP K15, K30, K60 and K120, concentration increased from 0.1 to 0.5% (w/v), p < 0.05) | Induction time (tind) ([2]; PVP K15, concentration increased from 0.1 to 0.5% and again from 0.5 to 1% (w/v), p < 0.05) | Induction time (tind) ([2]; PVP K30, concentration increased from 0.1 to 0.5% (w/v), p > 0.05) | Induction time (tind) ([2]; PVP K30, concentration increased from 0.5 to 1% (w/v), p < 0.05) | Induction time (tind) ([2]; PVP K60 and K120, concentration increased from 0.1 to 0.5% and again from 0.5 to 1% (w/v), p > 0.05) |
| --- | --- | --- | --- | --- | --- | --- | --- | --- | --- | --- | --- | --- | --- | --- | --- | --- | --- | --- | --- |
| CN1CC(=O)N2[C@H](c3ccc4c(c3)OCO4)c3[nH]c4ccccc4c3C[C@@H]2C1=O [tadalafil] | No statistically significant increase | no statistically significant increase | statistically significant increase | statistically significant difference | statistically significant increase | statistically significant difference | no statistically significant differences | significant influence | no significant influence | no statistically significant differences |  |  |  |  |  |  |  |  |  |
| CCCSc1ccc2nc(NC(=O)OC)[nH]c2c1 [albendazole, Albendazole] | No statistically significant increase | no statistically significant increase | statistically significant increase | statistically significant difference | statistically significant increase | statistically significant difference | no statistically significant differences | significant influence | no significant influence | no statistically significant differences |  |  |  |  |  |  |  |  |  |
| NS(=O)(=O)c1cc2c(cc1Cl)N=C(CSCc1ccccc1)NS2(=O)=O [benzthiazide] |  |  |  |  |  |  |  |  |  |  | 4 min |  |  |  |  |  |  |  |  |
| CC(=O)N1CCN(c2ccc(OCC3COC(Cn4ccnc4)(c4ccc(Cl)cc4Cl)O3)cc2)CC1 (stereo not shown) [ketoconazole] | No statistically significant increase |  |  | statistically significant difference |  |  |  | significant influence | no significant influence | no statistically significant differences |  | further statistically significant increase | statistically significant increase | statistically significant difference | statistically significant difference | statistically significant increase | no statistically significant increase | statistically significant increase | no statistically significant differences |
